Measured values taken from ChEMBL document CHEMBL1201862, “PubChem BioAssay data set” (2004).
The source made the active and inactive calls.

What was measured:
[1] = biological target: Large T antigen (Simian virus 40, UniProt P03070); format: functional, Betapolyomavirus macacae;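 also: Confirmatory-stage PubChem screen for compounds that inhibit SV40 T antigen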
[2] = biological target: Heat shock protein HSP90 (Homo sapiens, UniProt P07900+P08238); experiment: tumor Hsp90 inhibitor potency, dose response (AID 712); format: functional
[3] = biological target: T1, Replicative DNA helicase DnaB (Mycobacterium tuberculosis, UniProt P9WMR3); experiment: DnaB intein splicing inhibitors, dose response, biochemical, cell-free fluorescence (AID 449749); format: functional
T1 sequence (P9WMR3 whole entry): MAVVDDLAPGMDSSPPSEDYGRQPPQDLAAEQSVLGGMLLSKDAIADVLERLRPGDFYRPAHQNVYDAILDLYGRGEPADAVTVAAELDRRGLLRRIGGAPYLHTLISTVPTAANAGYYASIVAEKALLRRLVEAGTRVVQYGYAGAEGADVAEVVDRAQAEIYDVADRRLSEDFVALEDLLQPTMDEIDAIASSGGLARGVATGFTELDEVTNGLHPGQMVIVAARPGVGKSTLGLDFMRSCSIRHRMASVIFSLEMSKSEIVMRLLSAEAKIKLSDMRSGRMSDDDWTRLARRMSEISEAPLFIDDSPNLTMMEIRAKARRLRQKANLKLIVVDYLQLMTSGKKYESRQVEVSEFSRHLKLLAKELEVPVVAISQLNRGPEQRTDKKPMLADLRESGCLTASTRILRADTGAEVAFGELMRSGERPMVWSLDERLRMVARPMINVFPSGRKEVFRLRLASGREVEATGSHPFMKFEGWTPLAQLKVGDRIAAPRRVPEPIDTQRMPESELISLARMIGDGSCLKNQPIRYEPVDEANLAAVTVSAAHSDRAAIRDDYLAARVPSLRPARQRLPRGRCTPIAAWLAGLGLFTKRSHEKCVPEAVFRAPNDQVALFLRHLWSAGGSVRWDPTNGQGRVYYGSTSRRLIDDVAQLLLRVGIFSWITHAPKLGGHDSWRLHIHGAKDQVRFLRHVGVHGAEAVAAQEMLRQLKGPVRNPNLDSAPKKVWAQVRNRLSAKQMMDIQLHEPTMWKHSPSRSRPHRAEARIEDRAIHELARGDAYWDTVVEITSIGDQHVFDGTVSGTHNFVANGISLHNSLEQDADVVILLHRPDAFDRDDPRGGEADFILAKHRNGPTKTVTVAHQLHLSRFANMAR

[4] = THP-1 cell cytotoxicity, dose response, cytotoxicity control for Vif-APOBEC3G degradation inhibitor project, THP-1 cells (AID 1117359); format: functional; conditions: Human immunodeficiency virus 1, THP-1
[5] = biological target: T2, Protein Tat (Human immunodeficiency virus type 1 group M subtype B (isolate HXB2)(HIV-1), UniProt P04608); format: functional;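 also: tat binding to TAR RNA read out by fluorescence polarization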
T2 sequence (P04608 whole entry): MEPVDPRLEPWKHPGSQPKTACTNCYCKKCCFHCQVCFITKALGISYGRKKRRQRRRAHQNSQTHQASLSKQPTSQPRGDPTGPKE

[6] = biological target: T3, Protein RecA (Mycobacterium tuberculosis, UniProt P9WHJ3); experiment: Fluorescence Cell-Free Homogeneous Dose Retest to Identify Inhibitors of RecA-Intein Splicing Activity. [Related pubchem assays (depositor defined):AID2097, AID2223, AID489010, AID492950]; format: functional
T3 sequence (P9WHJ3 whole entry): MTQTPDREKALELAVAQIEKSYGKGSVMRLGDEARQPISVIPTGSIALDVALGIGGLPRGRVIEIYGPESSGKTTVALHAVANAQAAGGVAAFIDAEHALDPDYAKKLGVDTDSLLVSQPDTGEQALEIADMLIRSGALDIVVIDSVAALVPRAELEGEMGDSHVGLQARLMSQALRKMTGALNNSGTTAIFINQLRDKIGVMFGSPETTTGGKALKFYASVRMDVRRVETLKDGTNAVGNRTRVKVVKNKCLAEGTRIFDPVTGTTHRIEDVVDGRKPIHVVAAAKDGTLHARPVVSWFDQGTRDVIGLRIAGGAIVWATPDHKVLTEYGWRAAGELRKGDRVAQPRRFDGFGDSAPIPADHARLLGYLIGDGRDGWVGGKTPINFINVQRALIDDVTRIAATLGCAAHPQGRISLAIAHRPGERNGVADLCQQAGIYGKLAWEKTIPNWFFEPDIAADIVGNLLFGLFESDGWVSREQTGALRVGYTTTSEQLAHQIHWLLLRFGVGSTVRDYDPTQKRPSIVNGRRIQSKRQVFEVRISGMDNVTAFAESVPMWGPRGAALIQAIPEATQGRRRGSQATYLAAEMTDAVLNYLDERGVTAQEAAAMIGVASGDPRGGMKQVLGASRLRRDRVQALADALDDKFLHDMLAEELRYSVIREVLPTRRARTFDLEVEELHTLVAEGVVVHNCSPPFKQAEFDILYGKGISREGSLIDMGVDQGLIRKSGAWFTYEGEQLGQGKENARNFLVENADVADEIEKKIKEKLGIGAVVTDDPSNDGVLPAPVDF

[7] = biological target: Solute carrier family 12 member 2/member 5 (Homo sapiens, UniProt P55011+Q9H2X9); experiment: KCC2 and NKCC1 inhibition by rubidium flux, cell-based, NKCC1 counter-screen (AID 1734); format: functional, HEK293
[8] = biological target: NS3 (Hepatitis C virus, UniProt A3EZJ3); experiment: PubChem AID 2173; set-up: species or system Hepacivirus hominis
NS3, sequence (A3EZJ3 whole entry): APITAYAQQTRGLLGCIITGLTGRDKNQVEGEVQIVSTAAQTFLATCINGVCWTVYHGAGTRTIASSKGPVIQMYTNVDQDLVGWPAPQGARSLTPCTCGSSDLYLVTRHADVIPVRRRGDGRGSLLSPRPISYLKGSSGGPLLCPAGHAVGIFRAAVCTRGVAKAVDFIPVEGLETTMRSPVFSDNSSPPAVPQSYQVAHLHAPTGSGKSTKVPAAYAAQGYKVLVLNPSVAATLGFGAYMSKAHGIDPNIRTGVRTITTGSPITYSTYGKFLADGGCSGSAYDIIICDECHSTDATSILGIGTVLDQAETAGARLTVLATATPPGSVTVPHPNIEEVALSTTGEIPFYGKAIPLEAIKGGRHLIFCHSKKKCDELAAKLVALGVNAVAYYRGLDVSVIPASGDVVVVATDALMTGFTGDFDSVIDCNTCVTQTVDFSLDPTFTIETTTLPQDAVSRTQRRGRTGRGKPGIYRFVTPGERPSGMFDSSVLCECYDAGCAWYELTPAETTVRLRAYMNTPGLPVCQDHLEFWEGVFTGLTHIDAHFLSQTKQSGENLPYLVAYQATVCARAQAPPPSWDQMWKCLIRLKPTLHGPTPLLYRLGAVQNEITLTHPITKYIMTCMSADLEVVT

[9] = NIH-3T3 fibroblast cytotoxicity, dose response, cytotoxicity control, cell-based, fluorescence, Alamar Blue, secondary assay (AID 2327); format: functional;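 also: NIH-3T3 mouse fibroblasts cultured with fluconazole at 8 µg/mL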
[10] = C. albicans growth with fluconazole, confirmation, fluorescence, retest (AID 2467); format: functional, cell-based
[11] = biological target: T4, Mannose-6-phosphate isomerase (Homo sapiens, UniProt P34949); experiment: human PMI inhibitors, high substrate, primary screen, biochemical, fluorescence intensity, high mannose 6-phosphate (AID 1220)
T4 sequence (P34949 whole entry): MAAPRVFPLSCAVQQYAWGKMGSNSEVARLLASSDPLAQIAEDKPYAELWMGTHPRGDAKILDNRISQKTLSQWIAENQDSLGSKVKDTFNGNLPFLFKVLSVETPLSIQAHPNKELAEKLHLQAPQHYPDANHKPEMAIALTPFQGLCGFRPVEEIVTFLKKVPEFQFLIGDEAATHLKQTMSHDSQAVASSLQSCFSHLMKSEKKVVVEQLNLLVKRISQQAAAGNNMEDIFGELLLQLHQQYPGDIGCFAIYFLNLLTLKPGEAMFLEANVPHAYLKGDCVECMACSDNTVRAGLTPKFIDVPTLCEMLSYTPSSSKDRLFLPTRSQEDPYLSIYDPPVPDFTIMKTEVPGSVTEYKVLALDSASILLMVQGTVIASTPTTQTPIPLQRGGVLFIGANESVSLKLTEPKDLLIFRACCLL

[12] = biological target: DNA dC->dU-editing enzyme APOBEC-3G (Homo sapiens, UniProt Q9HC16); experiment: Dose Response confirmation of small molecule APOBEC3G DNA Deaminase Inhibitors via a fluorescence-based single-stranded DNA deaminase assay. [Related pubchem assays (depositor defined):AID493012, AID493028]; format: functional
DNA dC->dU-editing enzyme APOBEC-3G, sequence (Q9HC16 whole entry): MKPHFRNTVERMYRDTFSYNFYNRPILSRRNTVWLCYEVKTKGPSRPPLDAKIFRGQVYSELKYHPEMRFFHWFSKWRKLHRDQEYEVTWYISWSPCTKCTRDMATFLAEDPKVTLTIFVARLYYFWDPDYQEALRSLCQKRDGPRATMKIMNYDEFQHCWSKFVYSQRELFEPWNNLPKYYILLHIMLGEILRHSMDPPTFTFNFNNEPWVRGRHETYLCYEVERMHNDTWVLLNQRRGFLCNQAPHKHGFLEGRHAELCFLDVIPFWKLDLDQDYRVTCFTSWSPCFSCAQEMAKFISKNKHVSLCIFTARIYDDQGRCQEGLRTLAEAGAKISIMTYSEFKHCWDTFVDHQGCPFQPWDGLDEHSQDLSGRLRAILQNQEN

[13] = biological target: T5, Calpain-2 catalytic subunit (Sus scrofa, UniProt P43367); experiment: pig calpain II inhibitor potency, dose response, biochemical, fluorogenic peptide substrate (AID 1420); format: functional
T5 sequence (P43367 whole entry): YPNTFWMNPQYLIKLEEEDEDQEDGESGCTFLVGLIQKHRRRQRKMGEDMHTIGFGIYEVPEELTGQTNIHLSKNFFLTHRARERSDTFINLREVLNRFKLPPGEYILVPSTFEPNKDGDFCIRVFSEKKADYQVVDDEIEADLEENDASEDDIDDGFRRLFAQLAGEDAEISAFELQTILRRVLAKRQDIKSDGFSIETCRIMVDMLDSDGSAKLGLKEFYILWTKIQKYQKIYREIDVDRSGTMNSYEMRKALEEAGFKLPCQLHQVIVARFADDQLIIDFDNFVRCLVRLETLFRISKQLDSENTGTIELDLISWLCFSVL

[14] = biological target: T4, Mannose-6-phosphate isomerase; experiment: inhibitors of human PMI, primary screen, biochemical, fluorescence intensity, coupled assay (AID 1209)
[15] = Vero cell cytotoxicity, dose response, cytotoxicity control for Vif-APOBEC3G degradation inhibitor project, Vero cells (AID 1117358); format: functional; conditions: Human immunodeficiency virus 1, Vero
[16] = biological target: Dual specificity tyrosine-phosphorylation-regulated kinase 1A (Rattus norvegicus, UniProt Q63470); format: biochemical, Homo sapiens
[17] = biological target: Genome polyprotein (Hepatitis C virus, UniProt Q2Q167); experiment: HCV core protein dimerization inhibitors, dose response, biochemical, TR-FRET (AID 2159); set-up: species or system Hepacivirus hominis;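 also: blocks dimerization of HCV core protein measured by TR-FRET between tagged core106 pairs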
Genome polyprotein, sequence (Q2Q167 whole entry): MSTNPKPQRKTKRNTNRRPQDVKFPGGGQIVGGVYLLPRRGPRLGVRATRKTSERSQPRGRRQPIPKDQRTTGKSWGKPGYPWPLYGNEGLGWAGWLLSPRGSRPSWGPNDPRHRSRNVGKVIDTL

[18] = biological target: T6, Estrogen receptor (Homo sapiens, UniProt P03372);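 also: potency for inhibiting coactivator peptide recruitment to the receptor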
T6 sequence (P03372 whole entry): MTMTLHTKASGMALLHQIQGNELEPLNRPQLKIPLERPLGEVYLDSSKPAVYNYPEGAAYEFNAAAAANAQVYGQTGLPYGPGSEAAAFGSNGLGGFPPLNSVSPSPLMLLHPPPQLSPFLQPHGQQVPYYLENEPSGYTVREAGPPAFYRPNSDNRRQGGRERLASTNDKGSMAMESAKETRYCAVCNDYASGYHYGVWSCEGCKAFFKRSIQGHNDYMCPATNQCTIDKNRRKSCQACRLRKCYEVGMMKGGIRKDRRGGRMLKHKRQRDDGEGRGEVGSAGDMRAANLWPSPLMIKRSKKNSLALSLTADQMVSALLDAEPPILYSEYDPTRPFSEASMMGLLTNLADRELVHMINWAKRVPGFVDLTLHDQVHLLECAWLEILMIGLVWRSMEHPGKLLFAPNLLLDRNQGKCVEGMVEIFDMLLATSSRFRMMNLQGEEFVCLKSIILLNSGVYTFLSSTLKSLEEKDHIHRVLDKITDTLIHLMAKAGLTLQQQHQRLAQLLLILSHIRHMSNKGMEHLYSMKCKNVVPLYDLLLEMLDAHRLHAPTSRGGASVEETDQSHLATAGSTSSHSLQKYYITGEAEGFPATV

[19] = biological target: T7, Carboxy-terminal domain RNA polymerase II polypeptide A small phosphatase 1 (Homo sapiens, UniProt Q9GZU7); experiment: inhibitors of CTDSP1, concentration-response testing, biochemical assay, absorbance-based, actives from ultra-high-throughput screening (AID 540297); format: functional
T7 sequence (Q9GZU7 whole entry): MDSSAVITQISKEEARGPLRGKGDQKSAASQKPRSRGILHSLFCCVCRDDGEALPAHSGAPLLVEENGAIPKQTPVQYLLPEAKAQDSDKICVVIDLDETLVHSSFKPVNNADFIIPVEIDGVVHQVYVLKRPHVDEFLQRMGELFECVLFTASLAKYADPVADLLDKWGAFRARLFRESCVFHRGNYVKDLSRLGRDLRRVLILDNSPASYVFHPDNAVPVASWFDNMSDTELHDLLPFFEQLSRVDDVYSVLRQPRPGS

[20] = biological target: E3 ubiquitin-protein ligase Mdm2 (Homo sapiens, UniProt Q00987); experiment: enhancers of MDM2-luciferase reporter signal, concentration-effect titration, project on inhibitors of MDM2 ubiquitin ligase, cellular assay, luminescent readout, 384-well plate format (AID 1394); format: functional;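 also: MDM2 E3 inhibitors raise luminescence so EC50 is for signal enhancement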
E3 ubiquitin-protein ligase Mdm2, sequence (Q00987 whole entry): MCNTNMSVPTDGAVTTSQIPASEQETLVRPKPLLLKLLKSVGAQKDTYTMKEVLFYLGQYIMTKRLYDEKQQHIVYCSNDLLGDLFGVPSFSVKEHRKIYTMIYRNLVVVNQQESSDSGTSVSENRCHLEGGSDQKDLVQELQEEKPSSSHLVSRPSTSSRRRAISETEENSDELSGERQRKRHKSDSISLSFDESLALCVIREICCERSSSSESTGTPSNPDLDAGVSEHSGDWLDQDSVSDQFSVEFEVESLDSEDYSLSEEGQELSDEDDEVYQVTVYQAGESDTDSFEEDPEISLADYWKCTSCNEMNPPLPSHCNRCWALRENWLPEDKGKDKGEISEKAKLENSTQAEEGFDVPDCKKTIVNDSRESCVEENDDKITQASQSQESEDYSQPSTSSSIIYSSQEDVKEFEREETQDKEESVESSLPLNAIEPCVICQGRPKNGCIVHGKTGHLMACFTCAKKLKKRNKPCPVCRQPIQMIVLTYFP

[21] = biological target: T8, Microphthalmia-associated transcription factor (Homo sapiens, UniProt O75030); experiment: TRPM1 promoter luciferase signal decrease, dose response, MITF inhibitor project, cell-based, SK-MEL-5, cherry-picked, set 3 (AID 493073); format: functional
T8 sequence (O75030 whole entry): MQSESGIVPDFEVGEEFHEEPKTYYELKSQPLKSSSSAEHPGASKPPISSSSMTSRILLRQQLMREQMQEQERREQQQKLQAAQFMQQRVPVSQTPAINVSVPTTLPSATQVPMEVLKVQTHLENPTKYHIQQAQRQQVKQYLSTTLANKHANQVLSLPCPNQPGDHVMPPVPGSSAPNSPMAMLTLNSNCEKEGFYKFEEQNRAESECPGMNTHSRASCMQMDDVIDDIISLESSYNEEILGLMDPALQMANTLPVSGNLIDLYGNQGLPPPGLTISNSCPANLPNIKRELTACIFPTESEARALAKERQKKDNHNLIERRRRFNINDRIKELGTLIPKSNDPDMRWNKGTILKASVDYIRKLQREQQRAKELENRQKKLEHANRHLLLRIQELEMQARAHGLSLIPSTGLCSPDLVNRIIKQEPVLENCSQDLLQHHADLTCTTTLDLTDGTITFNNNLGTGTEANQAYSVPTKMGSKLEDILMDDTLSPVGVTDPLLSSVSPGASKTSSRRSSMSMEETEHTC

Large T antigen, sequence (P03070 whole entry): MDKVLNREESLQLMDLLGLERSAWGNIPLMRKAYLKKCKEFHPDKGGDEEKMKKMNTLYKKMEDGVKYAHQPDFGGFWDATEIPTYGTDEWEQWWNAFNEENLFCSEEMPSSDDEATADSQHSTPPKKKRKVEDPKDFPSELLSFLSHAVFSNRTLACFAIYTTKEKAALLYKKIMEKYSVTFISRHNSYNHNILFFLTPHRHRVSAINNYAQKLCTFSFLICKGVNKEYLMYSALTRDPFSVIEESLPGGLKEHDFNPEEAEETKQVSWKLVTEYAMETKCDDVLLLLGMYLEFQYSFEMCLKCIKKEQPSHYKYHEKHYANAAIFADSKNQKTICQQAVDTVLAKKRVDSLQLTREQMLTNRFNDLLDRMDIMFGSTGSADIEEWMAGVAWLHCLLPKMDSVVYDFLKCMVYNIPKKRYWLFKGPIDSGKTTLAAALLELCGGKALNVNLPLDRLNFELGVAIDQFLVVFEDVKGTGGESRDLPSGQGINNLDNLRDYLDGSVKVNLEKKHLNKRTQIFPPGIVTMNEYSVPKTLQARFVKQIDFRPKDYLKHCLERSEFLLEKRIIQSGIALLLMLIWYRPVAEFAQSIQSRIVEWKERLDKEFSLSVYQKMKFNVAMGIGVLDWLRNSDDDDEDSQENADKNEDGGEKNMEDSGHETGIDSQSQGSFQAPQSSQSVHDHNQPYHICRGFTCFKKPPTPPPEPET

## Oc1ccc(/N=C/c2ccc(O)c(O)c2)cc1
[1]
  IC50: 9.16 µM (active)
[2]
  IC50: 20.6061 µM
[3]
  AC50: 10.5 µM (inconclusive)
[4]
  CC50: 22.2 µM (active)
[5]
  IC50: 15 µM (inconclusive)
[6]
  EC50: > 380 µM (inconclusive)

## CCOc1ccc(N2C(=O)C3Sc4nc(O)sc4C(/C=C/c4ccccc4)C3C2=O)cc1 (stereo not given)
[7]
  IC50: 0.3 µM (active)
[8]
  IC50: 15.4 µM (not active)

## O=[N+]([O-])c1ccc2c(c1)nc(S)n2-c1ccccc1
[9]
  EC50: > 150 µM (inactive)
[10]
  EC50: 2.85 µM (active)
[11]
  IC50: 39.6 µM (active)
[12]
  IC50: 9.42 µM (active)

## CCOc1cc(CNc2ccc(O)cc2)ccc1OCc1ccc(Cl)cc1Cl
[13]
  IC50: 7.31 µM (not active)
[3]
  AC50: > 380 µM (inconclusive)
[4]
  CC50: 13.9 µM (active)
[5]
  IC50: 34 µM (inconclusive)
[14]
  IC50: > 50 µM (not active)
[6]
  EC50: 331 µM (active)
[15]
  CC50: > 40 µM (active)

## CCC1(CC)NC(=O)N(CC(=O)Nc2sc3c(c2C(N)=O)CCC3)C1=O
[16]
  AC50: 32.9 µM (active)
[17]
  IC50: > 49.8 µM (not active)
[18]
  IC50: < 1.56 µM (active)
[19]
  IC50: 3.98 µM (active)

## CC(C)CC(=O)/C=C/n1c(=S)oc2ccccc21
[20]
  EC50: 1.2 µM (active)
[21]
  AC50: 10.5 µM (active)
